Measurements published in US20260285850A1, “SUBSTITUTED OXAZOLIDINONES AND IMIDAZOLINONES AS HERBICIDES” (FMC CORPORATION, priority 2023, published 2026).

Legend:
Assay type in all cases: in vivo
[1] = system: oat, wild (wild oat, Avena fatua); assay: Test A postemergence application, visual injury rating 0-100
Outline: (§1)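 Seeds sown in loam-sand blend got a preemergence directed soil spray, or emerged plants (2-10 cm, one- to two-leaf) got a postemergence spray, of compound in non-phytotoxic solvent with surfactant. After 10 days in greenhouse, injury rated visually versus untreated controls on a 0 (no effect) to 100 (complete control) scale.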

[2] = system: ryegrass, Italian (italian ryegrass, Lolium multiflorum); assay: as above
Outline: as §1

[3] = system: horseweed (Erigeron canadensis); assay: as above
Outline: as §1

[4] = system: ragweed (common ragweed, Ambrosia artemisiifolia); assay: as above
Outline: as §1

[5] = system: soybean (Glycine max); assay: as above
Outline: as §1

[6] = system: galium (catchweed bedstraw, Galium aparine); assay: as above
Outline: as §1

[7] = system: green foxtail (Setaria viridis); assay: as above
Outline: as §1

[8] = system: kochia (Bassia scoparia); assay: as above
Outline: as §1

[9] = system: barnyardgrass (Echinochloa crus-galli); assay: as above
Outline: as §1

[10] = system: palmer (palmer amaranth, palmer pigweed, Amaranthus palmeri); assay: as above
Outline: as §1

[11] = system: corn (Zea mays); assay: as above
Outline: as §1

[12] = system: wheat (Triticum aestivum); assay: as above
Outline: as §1

[13] = system: blackgrass (Alopecurus myosuroides); assay: as above
Outline: as §1

[14] = system: oat, wild (wild oat, Avena fatua); assay: Test A preemergence soil spray, visual injury rating 0-100; conditions: 10 days
Outline: as §1

[15] = system: ryegrass, Italian (italian ryegrass, Lolium multiflorum); assay: as above; conditions: 10 days
Outline: as §1

[16] = system: ragweed (common ragweed, Ambrosia artemisiifolia); assay: as above; conditions: 10 days
Outline: as §1

[17] = system: soybean (Glycine max); assay: as above; conditions: 10 days
Outline: as §1

[18] = system: green foxtail (Setaria viridis); assay: as above; conditions: 10 days
Outline: as §1

[19] = system: kochia (Bassia scoparia); assay: as above; conditions: 10 days
Outline: as §1

[20] = system: barnyardgrass (Echinochloa crus-galli); assay: as above; conditions: 10 days
Outline: as §1

[21] = system: palmer (palmer amaranth, palmer pigweed, Amaranthus palmeri); assay: as above; conditions: 10 days
Outline: as §1

[22] = system: corn (Zea mays); assay: as above; conditions: 10 days
Outline: as §1

[23] = system: wheat (Triticum aestivum); assay: as above; conditions: 10 days
Outline: as §1

[24] = system: blackgrass (Alopecurus myosuroides); assay: as above; conditions: 10 days
Outline: as §1

[25] = system: sedge, umbrella (small-flower umbrella sedge, Cyperus difformis); assay: Test B flooded paddy test, visual plant response rating 0-100; conditions: 250 g ai/ha, Flood, applied to paddy water, evaluated after 13 days
Outline: (§2)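 Visual evaluation after 13 days. Water-applied treatment, 3 cm flood depth held constant, plants at 2-leaf stage at treatment.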

[26] = system: ducksalad (Heteranthera limosa); assay: as above; conditions: 250 g ai/ha, Flood, applied to paddy water, evaluated after 13 days
Outline: as §2

[27] = system: barnyardgrass (Echinochloa crusgalli); assay: as above; conditions: 250 g ai/ha, Flood, applied to paddy water, evaluated after 13 days
Outline: as §2

[28] = system: rice (Oryza sativa); assay: as above; conditions: 250 g ai/ha, Flood, applied to paddy water, evaluated after 13 days
Outline: as §2

[29] = 62 g ai/ha, postemergence, 10 days, 0 = no effect, 100 = complete control
[30] = Postemergence, 16 g ai/ha, greenhouse 10 days, 0 no effect, 100 complete control
[31] = 62 g ai/ha, 0 = no effect, 100 = complete control

In the case of `C=CC1(C(=O)NC2C=CC(C(=O)OC)C2)CN(c2cc(F)cc(F)c2)C(=O)O1` (single isomer, unassigned) [Compound 167], the “Oat, Wild plant response rating (0-100)” value [1, 29] is reported as 90, the “Oat, Wild plant response rating (0 to 100 scale)” value [1, 30] is reported as 90 and the “Ryegrass, Italian plant response rating (0-100)” value [2, 29] is reported as 90. For the same compound, the “Ryegrass, Italian plant response rating (0 to 100 scale)” value [2, 30] was 80, the “Horseweed plant response rating (0-100)” value [3, 29] was 80 and the “Horseweed plant response rating (0 to 100 scale)” value [3, 30] was 80. The “Ragweed plant response rating (0-100)” value [4, 29] was 80, the “Ragweed plant response rating (0 to 100 scale)” value [4, 30] was 70 and the “Soybean plant response rating (0-100)” value [5, 29] was 80. For the same compound, the “Soybean plant response rating (0 to 100 scale)” value [5, 30] was 80, the “Galium plant response rating (0-100)” value [6, 29] was 80 and the “Galium plant response rating (0 to 100 scale)” value [6, 30] was 80. The “Foxtail, Green plant response rating (0-100)” value [7, 29] was 90, the “Foxtail, Green plant response rating (0 to 100 scale)” value [7, 30] was 90 and the “Kochia plant response rating (0-100)” value [8, 29] was 80. The “Kochia plant response rating (0 to 100 scale)” value [8, 30] was 80, the “Barnyardgrass plant response rating (0-100)” value [9, 29] was 90 and the “Barnyardgrass plant response rating (0 to 100 scale)” value [9, 30] was 90. The “Pigweed, Palmer plant response rating (0-100)” value [10, 29] was 90, the “Pigweed, Palmer plant response rating (0 to 100 scale)” value [10, 30] was 90 and the “Corn plant response rating (0-100)” value [11, 29] was 100. The “Corn plant response rating (0 to 100 scale)” value [11, 30] was 100, the “Wheat plant response rating (0-100)” value [12, 29] was 90 and the “Wheat plant response rating (0 to 100 scale)” value [12, 30] was 90. The “Blackgrass plant response rating (0-100)” value [13, 29] was 90, the “Blackgrass plant response rating (0 to 100 scale)” value [13, 30] was 80 and the “Oat, Wild plant response rating” value ([14]; 16 g ai/ha, 0 to 100 scale) was 50. The “Oat, Wild plant response rating (0-100)” value [14, 31] was 90, the “Ryegrass, Italian plant response rating” value ([15]; 16 g ai/ha, 0 to 100 scale) was 80 and the “Ryegrass, Italian plant response rating (0-100)” value [15, 31] was 90. The “Ragweed plant response rating” value ([16]; 16 g ai/ha, 0 to 100 scale) was 60, the “Ragweed plant response rating (0-100)” value [16, 31] was 90 and the “Soybean plant response rating” value ([17]; 16 g ai/ha, 0 to 100 scale) was 70. The “Soybean plant response rating (0-100)” value [17, 31] was 80, the “Foxtail, Green plant response rating” value ([18]; 16 g ai/ha, 0 to 100 scale) was 90 and the “Foxtail, Green plant response rating (0-100)” value [18, 31] was 100. For the same compound, the “Kochia plant response rating” value ([19]; 16 g ai/ha, 0 to 100 scale) was 70, the “Kochia plant response rating (0-100)” value [19, 31] was 100 and the “Barnyardgrass plant response rating” value ([20]; 16 g ai/ha, 0 to 100 scale) was 60. The “Barnyardgrass plant response rating (0-100)” value [20, 31] was 100, the “Pigweed, Palmer plant response rating” value ([21]; 16 g ai/ha, 0 to 100 scale) was 100 and the “Pigweed, Palmer plant response rating (0-100)” value [21, 31] was 100. For the same compound, the “Corn plant response rating” value ([22]; 16 g ai/ha, 0 to 100 scale) was 40, the “Corn plant response rating (0-100)” value [22, 31] was 90 and the “Wheat plant response rating” value ([23]; 16 g ai/ha, 0 to 100 scale) was 70. For the same compound, the “Wheat plant response rating (0-100)” value [23, 31] was 90, the “Blackgrass plant response rating” value ([24]; 16 g ai/ha, 0 to 100 scale) was 30 and the “Blackgrass plant response rating (0-100)” value [24, 31] was 70. The “Plant response rating, Sedge, Umbrella (0 to 100 scale, 0 is no effect and 100 is complete control)” value [25] was 98, the “Plant response rating, Ducksalad (0 to 100 scale, 0 is no effect and 100 is complete control)” value [26] was 98 and the “Plant response rating, Barnyardgrass (0 to 100 scale, 0 is no effect and 100 is complete control)” value [27] was 90. The “Plant response rating, Rice (0 to 100 scale, 0 is no effect and 100 is complete control)” value [28] was 98.
